According to patent US20260207623A1, “USE OF ESTETROL IN HEPATICALLY IMPAIRED PATIENTS” (ESTETRA SRL, priority 2022, published 2026):

Test: Phase 1 pharmacokinetic study of a single oral dose of 20 mg E4 monohydrate in female subjects with normal hepatic function and mild, moderate or severe hepatic impairment (plasma, LC-MS/MS, non-compartmental analysis)
Format: in vivo, human
Settings: for AUC0-24 h, GM / AUC0-24 h, Mean / AUC0-24 h, Median / AUCinf, GM / AUCinf, Mean / AUCinf, Median / AUClast, GM / AUClast, Mean / AUClast, Median / Cmax, GM / Cmax, Mean / Cmax, Median / T1/2, GM / T1/2, Mean / T1/2, Median / Tmax, Median / λz, GM / λz, Mean / λz, Median: single oral dose 20 mg E4 monohydrate, plasma
Experimental: This was a Phase 1, multi-centre, open-label, PK, and safety study of a single oral dose of 20 mg E4 monohydrate in female subjects with normal hepatic function (Group 1), mild hepatic impairment (Group 2), moderate hepatic impairment (Group 3), and severe hepatic impairment (Group 4), as defined using the Child-Pugh classification at Screening.
The study consisted of an eligibility Screening period (within 28 days prior to study drug administration), an Assessment Period with in-house period and outpatient visits (including a single oral dose of 20 mg E4 on Day 1), and a follow up visit. All subjects were confined to the study site from Day-1 (the day before dosing) until Day 4 and returned to the site every day from Day 5 to Day 9. Alternatively, the subjects could stay for a prolonged in-house period in agreement with the Investigator. The follow-up visit occurred on Day 14 (+2 days).
All subjects arrived at the study site in the morning of Day-1 in a fasted state (no food for at least 8 h, water was allowed) to have the scheduled assessments performed in order to confirm eligibility as outlined in the inclusion and exclusion criteria (Section 2.3.1 and Section 2.3.2, respectively). In the morning of Day 1 following an overnight fast, the subjects received oral dosing of 20 mg E4 monohydrate and remained at the site. Study-related assessments were performed at time points indicated in the Schedule of Assessments in Table 2.
Serial blood sampling for PK assessments started on Day 1 and proceeded until Day 9 according to the Pharmacokinetic Sampling Schedule presented in Table 3.
Each enrolled subject was to receive a single oral dose of 20 mg of E4 (estetrol) as monohydrate as a film-coated tablet.
Study drug was administered to subjects in the morning after an overnight fast of at least 8 h.
Calculation of non-compartmental PK parameters were done using WinNonlin™ Professional, Version 6.3 or higher.
The primary PK parameters to be analyzed for E4 in plasma: • Cmax=maximum observed plasma concentration • AUCinf=area under the concentration-time curve (AUC) from time zero extrapolated to infinity
The analysis of E4 and the metabolites E4-3-glucuronide and E4-16-glucuronide in plasma samples were performed at the Bioanalytical Laboratory of the CRO using a validated liquid chromatography-mass spectrometry/mass spectrometry method.
Individual and mean plasma concentrations at each sampling time point for E4 are presented by listings and descriptive summary statistics including means, geometric means (GMs), medians, ranges, standard deviations (SD) and coefficients of variation (CV). Individual, mean and/or median concentrations per hepatic function group were plotted versus time on semilogarithmic scales.
PK parameters were calculated by non-compartmental analysis. PK parameters were analysed using descriptive statistics and are presented by hepatic function group.
Analysis of variance (ANOVA) were used to compare primary PK parameters of E4 (Cmax and AUCinf) between subjects with hepatic impairment and subjects with normal hepatic function in an exploratory approach, using the log-transformed value of each PK parameter as dependent variable, and the hepatic impairment group (normal, mild, moderate, and severe) as a fixed classification factor. Geometric least squares means were used to calculate the ratios of primary PK parameters for each hepatic impairment group to those in the control group, along with 90% confidence intervals (CIs).
Additionally, the impact of age and BMI on the effect of hepatic impairment were evaluated using an ANOVA model similar as the ANOVA model described above, but with the interaction between each factor and the hepatic impairment group included as an additional factor.
The relationship between log-transformed PK parameters (Cmax and AUCinf) and continuous parameters (albumin, total bilirubin, and prothrombin time) used for the Child-Pugh score was explored by a linear regression approach. […]

Compound: CC12CCC3c4ccc(OC5OC(C(=O)O)C(O)C(O)C5O)cc4CCC3C1C(O)C(O)C2O (stereo not shown) [E4-3-glucuronide, estetrol-3-glucuronide]
- AUC0-24 h, GM (Mild hepatic impairment): 315.86 ng·h/mL
- AUC0-24 h, Mean (Mild hepatic impairment): 322.40 ng·h/mL
- AUC0-24 h, Median (Mild hepatic impairment): 302.66 ng·h/mL
- AUCinf, GM (Mild hepatic impairment): 497.24 ng·h/mL
- AUCinf, Mean (Mild hepatic impairment): 506.96 ng·h/mL
- AUCinf, Median (Mild hepatic impairment): 483.73 ng·h/mL
- AUClast, GM (Mild hepatic impairment): 473.28 ng·h/mL
- AUClast, Mean (Mild hepatic impairment): 483.07 ng·h/mL
- AUClast, Median (Mild hepatic impairment): 440.22 ng·h/mL
- Cmax, GM (Mild hepatic impairment): 113.610 ng/mL
- Cmax, Mean (Mild hepatic impairment): 118.113 ng/mL
- Cmax, Median (Mild hepatic impairment): 114.000 ng/mL
- T1/2, GM (Mild hepatic impairment): 23.130 h
- T1/2, Mean (Mild hepatic impairment): 24.540 h
- T1/2, Median (Mild hepatic impairment): 24.692 h
- Tmax, Median (Mild hepatic impairment): 0.490 h
- λz, GM (Mild hepatic impairment): 0.0300 h⁻¹
- λz, Mean (Mild hepatic impairment): 0.0318 h⁻¹
- λz, Median (Mild hepatic impairment): 0.0281 h⁻¹
- AUC0-24 h, GM (Moderate hepatic impairment): 269.04 ng·h/mL
- AUC0-24 h, Mean (Moderate hepatic impairment): 282.87 ng·h/mL
- AUC0-24 h, Median (Moderate hepatic impairment): 299.08 ng·h/mL
- AUCinf, GM (Moderate hepatic impairment): 363.25 ng·h/mL
- AUCinf, Mean (Moderate hepatic impairment): 388.13 ng·h/mL
- AUCinf, Median (Moderate hepatic impairment): 412.85 ng·h/mL
- AUClast, GM (Moderate hepatic impairment): 311.58 ng·h/mL
- AUClast, Mean (Moderate hepatic impairment): 336.84 ng·h/mL
- AUClast, Median (Moderate hepatic impairment): 325.82 ng·h/mL
- Cmax, GM (Moderate hepatic impairment): 111.990 ng/mL
- Cmax, Mean (Moderate hepatic impairment): 122.863 ng/mL
- Cmax, Median (Moderate hepatic impairment): 133.000 ng/mL
- T1/2, GM (Moderate hepatic impairment): 14.390 h
- T1/2, Mean (Moderate hepatic impairment): 17.084 h
- T1/2, Median (Moderate hepatic impairment): 14.153 h
- Tmax, Median (Moderate hepatic impairment): 1 h
- λz, GM (Moderate hepatic impairment): 0.0500 h⁻¹
- λz, Mean (Moderate hepatic impairment): 0.0560 h⁻¹
- λz, Median (Moderate hepatic impairment): 0.0502 h⁻¹
- AUC0-24 h, GM (Normal hepatic function): 279.86 ng·h/mL
- AUC0-24 h, Mean (Normal hepatic function): 290.53 ng·h/mL
- AUC0-24 h, Median (Normal hepatic function): 309.09 ng·h/mL
- AUCinf, GM (Normal hepatic function): 458.11 ng·h/mL
- AUCinf, Mean (Normal hepatic function): 485.88 ng·h/mL
- AUCinf, Median (Normal hepatic function): 495.16 ng·h/mL
- AUClast, GM (Normal hepatic function): 446.22 ng·h/mL
- AUClast, Mean (Normal hepatic function): 474.51 ng·h/mL
- AUClast, Median (Normal hepatic function): 485.66 ng·h/mL
- Cmax, GM (Normal hepatic function): 68.240 ng/mL
- Cmax, Mean (Normal hepatic function): 73.238 ng/mL
- Cmax, Median (Normal hepatic function): 70.100 ng/mL
- T1/2, GM (Normal hepatic function): 19.540 h
- T1/2, Mean (Normal hepatic function): 20.112 h
- T1/2, Median (Normal hepatic function): 18.583 h
- Tmax, Median (Normal hepatic function): 0.500 h
- λz, GM (Normal hepatic function): 0.0400 h⁻¹
- λz, Mean (Normal hepatic function): 0.0364 h⁻¹
- λz, Median (Normal hepatic function): 0.0373 h⁻¹
- AUC0-24 h, GM (Severe hepatic impairment): 299.07 ng·h/mL
- AUC0-24 h, Mean (Severe hepatic impairment): 314.97 ng·h/mL
- AUC0-24 h, Median (Severe hepatic impairment): 264.88 ng·h/mL
- AUCinf, GM (Severe hepatic impairment): 332.77 ng·h/mL
- AUCinf, Mean (Severe hepatic impairment): 367.42 ng·h/mL
- AUCinf, Median (Severe hepatic impairment): 305.49 ng·h/mL
- AUClast, GM (Severe hepatic impairment): 325.76 ng·h/mL
- AUClast, Mean (Severe hepatic impairment): 360.81 ng·h/mL
- AUClast, Median (Severe hepatic impairment): 296.24 ng·h/mL
- Cmax, GM (Severe hepatic impairment): 93.970 ng/mL
- Cmax, Mean (Severe hepatic impairment): 96.250 ng/mL
- Cmax, Median (Severe hepatic impairment): 91.550 ng/mL
- T1/2, GM (Severe hepatic impairment): 7.710 h
- T1/2, Mean (Severe hepatic impairment): 8.652 h
- T1/2, Median (Severe hepatic impairment): 6.277 h
- Tmax, Median (Severe hepatic impairment): 0.510 h
- λz, GM (Severe hepatic impairment): 0.0900 h⁻¹
- λz, Mean (Severe hepatic impairment): 0.1005 h⁻¹
- λz, Median (Severe hepatic impairment): 0.1104 h⁻¹
- time to primary peak of GM plasma concentrations (all groups): ≤ 1 h
- Tmax was reached within (mild hepatic impairment): ≤ 2 h
- time post dose until which concentrations remained above LLOQ in at least half of the subjects (mild hepatic impairment): 96 h
- Tmax was reached within (moderate hepatic impairment): ≤ 2 h
- time post dose until which concentrations remained above LLOQ in at least half of the subjects (moderate hepatic impairment): 48 h
- time post dose until which concentrations remained above LLOQ in at least half of the subjects (normal hepatic function): 96 h
- Tmax was reached within (normal hepatic function (due to an outlier)): ~ 6 h
- Tmax was reached within (severe hepatic impairment): ≤ 1 h
- time post dose until which concentrations remained above LLOQ in at least half of the subjects (severe hepatic impairment): 36 h
